Laboratory results taken from patent publication US20030108610A1, “Methods and compositions for the delivery of pharmaceutical agents and/or the prevention of adhesions” (priority 1996, published 2003).

Legend:
[1] = 20% w/w poloxamer 407F
Method: Hydrophilic co-surfactants in the form of fatty acid soaps (i.e. sodium oleate, sodium laurate, sodium caprate, and sodium caprylate) were obtained from Nu-Chek Prep. (Elysian, Minn.).
For phase behavior studies, samples were loaded into 5 ml Wheaton vacuoles (Fisher Scientific, Pittsburgh, Pa.), and flame-sealed. The vacuoles were then immersed in a constant temperature bath. For temperatures less than 60° C., phase behavior was determined in a water bath (Koehler, Bohemia, N.Y.). At higher temperatures an oil bath (Haake, model DC3, Germany) was utilized. Temperature was raised in two degree increments from ca. 1° C. to 120° C. Samples were allowed to equilibrate for at least 1 hour at constant temperature prior to examination. Since the cubic liquid crystalline phase is isotropic (i.e. not birefringent), the determination of the gel boundary is somewhat subjective. Once equilibrium was reached, the vials were simply inverted and gravity was allowed to determine if the sample was in the sol or gel state.

[2] = Drug solubilization in poloxamer 407-water systems, apparent distribution coefficient micellar/aqueous phase; assay type: physicochemical
Method: The next day the sample was warmed momentarily to 40° C. to hasten solubilization. This process was repeated two or three times to ensure saturation. […] Prior to analysis, the samples were filtered through a 0.2 μm nylon filter syringe to remove unsolubilized drug. Samples were assayed for solubilized drug concentrations by absorbance spectroscopy (see below).
Drug Concentration Determinations. The samples were diluted to a suitable concentration with ethanol (for water insoluble drugs) or DI water. Drug concentrations were measured at the appropriate wavelength for each drug (see Table I) using a UV/Vis spectrophotometer (Beckman model DU-65). Concentrations were determined using Beer's law from the appropriate calibration curve (Table II). Gentamicin sulfate determination was performed by the UCSD Medical Center laboratory.
Where S and So are the concentration of solubilized drug in the presence and absence of poloxamer, respectively.

[3] = In-vitro release rate of drugs in poloxamer gels; assay type: physicochemical; settings: within the same poloxamer formulations
Method: In-vitro release rate of drugs in poloxamer gels. The in-vitro release rates of drugs in poloxamer-based gels were determined using a modified USP dissolution apparatus (Hanson Research model SR6) equipped with enhancer cells. […] Membranes (1.2 μm cellulose ester membranes, 25 mm diameter, type RAWP) were presoaked in phosphate buffer and placed on the cell. Approximately 0.6 mL of sample in the fluid sol phase was then loaded into each of the enhancer cells. The cells were subsequently closed and the gel phase was allowed to form at room temperature prior to introduction into the dissolution vessels. The dissolution paddles were rotated at a speed of 100 rpm (approximating the hydrodynamic stress found at the peritoneal cavity) and were positioned approximately 1 cm from the top of the cells for all experiments. The in-vitro release of drug from the gels was monitored over a period of 4 hr. One mL samples were collected every 0.5 hr. The vessel was refilled with fresh buffer every time a sample aliquot was removed, and each sample was run in duplicate.

## CCCCCCCC(=O)[O-].[Na+] [8:0 soap, sodium caprylate]
[1]
  soap concentration required to melt / completely suppress the 20% poloxamer 407F gel: ~11.5%

## CCCCCCCCCCCC(=O)[O-].[Na+] [12:0 soap, sodium laurate]
[1]
  soap concentration required to melt / completely suppress the 20% poloxamer 407F gel: 2.5%

## CCCCCCCCCC(=O)[O-].[Na+] [sodium caprate]
[1]
  soap concentration required to melt / completely suppress the 20% poloxamer 407F gel: > 5%

## Cc1ccc(C(=O)c2ccc(CC(=O)O)n2C)cc1 [sodium tolmetin, Tolmetin Sodium]
[2]
  partitioning between poloxamer micelle and bulk aqueous phase: partitions almost entirely into the bulk aqueous phase
[3]
  differences in diffusion coefficients or mean dissolution times (MDT) between drugs: no differences were observed
